Patent publication US6753348B2, “BTK inhibitors and methods for their identification and use” (Parker Hughes Institute, priority 1998, dated 2004)

Assays:
RBL-2H3 rat mast cells = assay: IgE/FcεRI receptor mediated leukotriene C4 release, RBL-2H3 mast cells; assay type: cell-based; conditions: RBL-2H3, IgE/DNP-BSA challenge, 30 min pre-incubation, 1-100 μM, N = 3-4, read-out: EC50 (mean ± SEM), inhibition of leukotriene C4 release
Method: Mast Cell Cultures. RBL-2H3 mast cells were a gift from Dr. Reuben P. Siraganian (Laboratory of Microbiology and Immunology, National Institute of Dental Research, National Institute of Health). The cells were maintained as monolayer cultures in 75- or 150-cm^2 flask in Eagle's essential medium supplemented with 20% fetal calf serum. Human fetal livers (16 to 21 weeks of gestational age) were obtained from prostaglandin-induced human abortuses. Subsequently, single cell suspensions were prepared and mononuclear cells were isolated by centrifugation on Ficoll-Hypaque gradients as described (Malaviya, R., et al., (1999) J Biol Chem, 274, 27028-27038). Isolated cells were cultured for 8 weeks in the presence of 100 ng/ml rhSCF, 2 ng/ml rhIL-4 (Malaviya, R., et al., (1999) J Biol Chem, 274, 27028-27038; Xia, H. Z., et al., (1997) J Immunol, 159, 2911-2921). Culture medium was replaced with fresh medium once a week for the first 2 weeks and twice a week thereafter. All human tissue specimens were used following the guidelines of the Parker Hughes Institute Institutional Review Board on the Use of Human Subjects in Research for secondary use of pathologic or surgical tissue. At the end of the 8 weeks the fetal liver derived human mast cell culture contained 70-90 percent mast cells, based on toluidine blue and tryptase staining (Xia, H. Z., et al., (1997) J Immunol, 159, 2911-2921).
Stimulation of Mast Cells. RBL-2H3 rat mast were sensitized with monoclonal anti-DNP IgE antibody (0.24 mg/ml) for 1 h at 37° C. in a 48-well tissue culture plate. Unbound IgE was removed by washing the cells with PIPES-buffered saline. After washing, PIPES-buffered saline containing 1 mM calcium chloride was added to the monolayers of the RBL-2H3 cells. The cells were challenged with 20 ng/ml DNP-BSA for 30 min at 37° C. The plate was centrifuged at 200 g for 10 min at 4° C. Supernatants were removed and saved. Fetal liver-derived human mast cells were resuspended in culture medium at a cell density of 5×10^6/ml and sensitized with human IgE (150 μg/ml) for 3 h at 4° C. After sensitization the cells were washed with tyrode buffer containing 1 mM calcium and 1 mM magnesium and challenged with mouse monoclonal anti-human IgE (40 μg/ml) for 30 min at 37° C. To study the effect of test drugs, RBL-2H3 rat mast cells or human mast cells were incubated with the drugs at the indicated concentrations or vehicle for 30 min prior to antigen challenge.
Mediator Release Assay. Leukotriene C4 levels were estimated in cell free supernatants of mast cells by immunoassay (Malaviya, R. and Abraham, S. N., (1995) Methods Enzymol, 253, 27-43).
Mast cells release large amounts of leukotrienes upon IgE receptor ligation. Because of the reported ability of LFM as a mast cell inhibitor, we utilized 13 analogues of LFM (Table 1) and examined their effect on IgE/FcεERI receptor mediated mast cell leukotriene C4 release. RBL-2H3 cells, a mucosal mast cell line, were treated with 5 different concentrations of the compounds ranging from 1 μM to 100 μM or vehicle for 30 min before challenge with antigen (DNP-BSA) at 37° C. Leukotriene C4 release was quantitated in the extracellular medium employing a previously described ELISA (Malaviya, R. and Abraham, S. N., (1995) Methods Enzymol, 253, 27-43).

[1] = test system: fetal liver derived human mast cells; assay: IgE/anti-IgE stimulated leukotriene C4 release, fetal liver derived human mast cells; assay type: cell-based; conditions: 100 μM, 30 min before anti-IgE challenge
Method: FIG. 27: Effect of LFM and LFM-A8 on IgE receptor/Fc epsilon RI-mediated human mast cell leukotriene C4 release. IgE sensitized fetal liver derived human mast cells were stimulated by challenging with anti-IgE. To study the effect of the test compounds, mast cells were incubated with vehicle or 100 μM LFM or LFM-A8 prior to challenge with anti-IgE. Leukotriene C4 levels were measured in cell-free supernatants by ELISA. Vehicle treated 10^6 mast cells released 12.5±2.2 ng leukotriene C4. The results are expressed as percent of vehicle-treated controls (N=4). The data points represent the mean±SEM values. *P<0.05 compared to vehicle-treated control, as determined by Student's t test.
Mast Cell Cultures. RBL-2H3 mast cells were a gift from Dr. Reuben P. Siraganian (Laboratory of Microbiology and Immunology, National Institute of Dental Research, National Institute of Health). […]
We next sought to determine the effect of LFM-A8 on IgE/FcεRI-mediated human mast cell leukotriene C4 release and compare its potency with that of LFM. […] The Fc[…] receptors of fetal liver-derived human mast cells were crosslinked with anti-IgE and the resulting mast cell leukotriene C4 release was quantitated by ELISA (Malaviya, R. and Abraham, S. N., (1995) Methods Enzymol, 253, 27-43).

JAK1 = JAK1 (Homo sapiens, UniProt P23458); assay: Cell-free tyrosine kinase inhibition assay JAK1; assay type: biochemical
Chain of JAK1 (P23458 whole entry, species assumed): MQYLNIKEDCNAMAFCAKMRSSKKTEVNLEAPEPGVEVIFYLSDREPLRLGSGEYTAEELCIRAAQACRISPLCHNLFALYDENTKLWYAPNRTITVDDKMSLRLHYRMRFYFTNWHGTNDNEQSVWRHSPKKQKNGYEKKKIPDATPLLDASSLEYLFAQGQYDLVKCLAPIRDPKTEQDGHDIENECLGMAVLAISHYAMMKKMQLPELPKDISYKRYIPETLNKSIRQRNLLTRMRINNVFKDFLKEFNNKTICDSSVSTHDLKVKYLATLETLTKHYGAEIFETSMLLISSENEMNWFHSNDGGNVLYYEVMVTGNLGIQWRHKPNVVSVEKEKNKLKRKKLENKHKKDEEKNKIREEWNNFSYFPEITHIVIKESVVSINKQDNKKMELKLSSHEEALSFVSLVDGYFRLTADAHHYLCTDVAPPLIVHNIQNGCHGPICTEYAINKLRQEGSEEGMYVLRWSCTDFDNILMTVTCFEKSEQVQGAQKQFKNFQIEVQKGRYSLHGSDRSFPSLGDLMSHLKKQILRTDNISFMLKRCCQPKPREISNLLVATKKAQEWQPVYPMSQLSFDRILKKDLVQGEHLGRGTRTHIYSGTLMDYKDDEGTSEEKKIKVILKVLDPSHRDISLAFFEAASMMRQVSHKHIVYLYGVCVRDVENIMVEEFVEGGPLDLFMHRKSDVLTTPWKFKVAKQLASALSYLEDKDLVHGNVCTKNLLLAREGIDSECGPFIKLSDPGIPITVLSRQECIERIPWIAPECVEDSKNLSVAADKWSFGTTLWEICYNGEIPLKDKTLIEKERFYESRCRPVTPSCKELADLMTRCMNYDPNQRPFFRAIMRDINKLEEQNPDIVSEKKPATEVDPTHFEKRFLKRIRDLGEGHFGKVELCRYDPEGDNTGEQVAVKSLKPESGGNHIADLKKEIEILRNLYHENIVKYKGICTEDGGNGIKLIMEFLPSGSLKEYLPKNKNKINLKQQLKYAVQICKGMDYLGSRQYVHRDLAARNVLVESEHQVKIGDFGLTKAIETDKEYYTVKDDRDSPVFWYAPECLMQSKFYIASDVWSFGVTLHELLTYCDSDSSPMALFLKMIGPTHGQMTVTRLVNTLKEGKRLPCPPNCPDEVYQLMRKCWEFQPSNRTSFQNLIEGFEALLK

[2] = biological target: EGF-Receptor Kinase (EGFR) (Homo sapiens, UniProt P00533); assay: Cell-free tyrosine kinase inhibition assay EGFR; assay type: biochemical
Chain of EGF-Receptor Kinase (EGFR) (P00533 25-1210, species assumed): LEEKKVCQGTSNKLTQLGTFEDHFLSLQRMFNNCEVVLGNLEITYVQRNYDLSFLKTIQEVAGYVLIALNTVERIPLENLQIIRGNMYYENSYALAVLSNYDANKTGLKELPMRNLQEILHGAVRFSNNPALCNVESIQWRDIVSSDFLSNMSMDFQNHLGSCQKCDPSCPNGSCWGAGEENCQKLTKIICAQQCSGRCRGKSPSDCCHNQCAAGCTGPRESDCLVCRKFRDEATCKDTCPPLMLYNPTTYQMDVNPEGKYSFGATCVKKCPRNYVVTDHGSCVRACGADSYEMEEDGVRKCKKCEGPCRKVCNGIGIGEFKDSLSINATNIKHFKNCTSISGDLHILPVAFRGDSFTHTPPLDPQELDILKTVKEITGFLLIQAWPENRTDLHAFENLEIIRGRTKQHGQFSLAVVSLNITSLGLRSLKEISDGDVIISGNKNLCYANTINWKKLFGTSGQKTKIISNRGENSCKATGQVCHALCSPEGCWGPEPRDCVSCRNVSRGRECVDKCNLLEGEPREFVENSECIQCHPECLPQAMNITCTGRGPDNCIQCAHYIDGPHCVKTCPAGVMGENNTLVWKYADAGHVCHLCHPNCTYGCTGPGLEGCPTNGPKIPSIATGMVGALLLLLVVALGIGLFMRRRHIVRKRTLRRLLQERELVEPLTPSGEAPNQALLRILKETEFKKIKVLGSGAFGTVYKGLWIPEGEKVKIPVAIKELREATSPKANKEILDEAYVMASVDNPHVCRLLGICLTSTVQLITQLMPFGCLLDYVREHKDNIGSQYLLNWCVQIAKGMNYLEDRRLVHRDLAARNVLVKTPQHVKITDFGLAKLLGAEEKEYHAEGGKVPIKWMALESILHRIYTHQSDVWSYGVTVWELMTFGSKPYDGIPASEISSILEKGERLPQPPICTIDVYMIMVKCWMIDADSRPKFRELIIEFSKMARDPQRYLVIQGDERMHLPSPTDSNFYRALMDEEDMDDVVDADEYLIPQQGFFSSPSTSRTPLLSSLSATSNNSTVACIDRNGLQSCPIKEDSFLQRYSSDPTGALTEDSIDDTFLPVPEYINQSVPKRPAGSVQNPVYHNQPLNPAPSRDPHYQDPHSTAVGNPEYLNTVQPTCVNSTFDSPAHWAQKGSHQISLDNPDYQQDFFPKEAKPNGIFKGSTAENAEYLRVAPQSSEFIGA

HCK = HCK (Homo sapiens, UniProt P08631); assay: Cell-free tyrosine kinase inhibition assay HCK from transfected COS-7 cells; assay type: biochemical
Chain of HCK (P08631 whole entry, species assumed, the tested form may be a part): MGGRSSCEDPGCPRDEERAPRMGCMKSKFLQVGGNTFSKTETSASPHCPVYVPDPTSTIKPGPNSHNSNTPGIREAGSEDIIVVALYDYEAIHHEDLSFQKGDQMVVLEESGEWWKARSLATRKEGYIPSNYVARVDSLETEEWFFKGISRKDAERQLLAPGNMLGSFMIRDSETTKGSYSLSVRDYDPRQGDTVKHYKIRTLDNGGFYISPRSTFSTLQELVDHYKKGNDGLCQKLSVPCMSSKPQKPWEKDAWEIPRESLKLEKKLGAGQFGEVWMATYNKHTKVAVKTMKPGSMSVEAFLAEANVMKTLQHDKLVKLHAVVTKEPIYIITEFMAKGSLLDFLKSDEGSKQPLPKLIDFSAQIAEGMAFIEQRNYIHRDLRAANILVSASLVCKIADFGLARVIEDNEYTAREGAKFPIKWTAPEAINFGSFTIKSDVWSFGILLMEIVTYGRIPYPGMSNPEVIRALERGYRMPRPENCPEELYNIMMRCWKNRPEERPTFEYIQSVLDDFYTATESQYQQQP

[3] = test system: B18.2, NALM-6 and ALL-1 cells; assay: Chemosensitization to ceramide and vincristine, DNA fragmentation; assay type: cell-based; conditions: 100 μM plus VCR 10 ng/ml or C2-CER 10 μM, 24 hours
[4] = concentrations as high as 100 μg/ml (~278 μM)

| EC50 (RBL-2H3 rat mast cells) [µM] | melting point [°C] | Compound | leukotriene C4 release from IgE/anti-IgE-stimulated human mast cells [1] | IC50 (JAK1) [µM] | effect on enzymatic activity of JAK1 (JAK1; [4]) | IC50 ([2]; EGFR) [µM] | effect on enzymatic activity of EGFR [2, 4] | IC50 (HCK) [µM] | effect on enzymatic activity of HCK (HCK; [4]) | sensitivity to ceramide-induced and vincristine-induced apoptosis [3] |
| --- | --- | --- | --- | --- | --- | --- | --- | --- | --- | --- |
| 28 ± 1 | 182 to 184 | CC(O)=C(C#N)C(=O)Nc1cccc(C(F)(F)F)c1 [LFM-A8, α-Cyano-β-hydroxy-β-methyl-N-[3-(trifluoromethyl)phenyl]-propenamide] | significantly inhibited | – | – | – | – | – | – | – |
| – | – | C/C(O)=C(\C#N)C(=O)Nc1cc(Br)ccc1Br [LFM-A13, α-Cyano-β-hydroxy-β-methyl-N-(2,5-dibromophenyl)-propenamide] | – | > 278 | did not affect the enzymatic activity | > 278 | did not affect the enzymatic activity | > 278 | did not affect the enzymatic activity | enhances the sensitivity |
